# Reference: patent US20190343908A1, “Therapeutic Combination for the Treatment of Cancer” (Nerium Biotechnology Inc., priority 2011, published 2019)
# What was measured:
# [1] = tested on: LNCaP prostate cancer cell line; test: Crystal Violet viability assay, LNCaP; type: cell-based, human; conditions: for ABSORBANCE: LNCaP, 0.1 μg/mL cisplatin
# Description: (§1) Three different viability assays were chosen to complement each other and yielded results dependent on concentration and cell line: the Methyl Tetrazolium dye assay, the Sulforhodamine B fluorescent dye assay, and the Crystal Violet dye assay.
# The Sulforhodamine B and Crystal Violet assays provide information about protein and were used to complement the Methyl-Tetrazolium dye assay. […] It is used for the quantification of cellular proteins of cultured cells. The assay using Crystal Violet, a dye that binds electrostatically to proteins and stains DNA, provides a reliable, simple assay for measuring viability of cells.
# (§2) The Methyl Tetrazolium, Sulforhodamine B, and Crystal Violet assays were used to assess cell viabilities. The incubation times were 24 hours, 48 hours, and 72 hours. The Nerium oleander extract Anvirzel™ (a hot water extract of oleander obtained from Salud Integral, Honduras) was tested in concentrations ranging from 0.01 ng/mL to 10 ng/mL.
# (§3) Cells were detached by trypsinization (Trypsin-0.25% EDTA, Invitrogen, 25200-072) during the logarithmic phase of culture growth and plated in 96-well plates (18.000 cells/well) (Corning, Costar 359) in a final volume of 200 μl of medium per well. […] The absorbance was measured after 24 hours, 48 hours, and 72 hours of incubation.
# For the Crystal Violet assay, the medium was removed from the 96-well plates, the plates rinsed with PBS (Sigma, P3813) and then the cells were […] by the addition of 10% formalin (MERCK, 1.04003.2500) for 20 minutes at RT. Formalin was removed and 0.25% aqueous crystal violet (Sigma, HT901), dissolved in water, was added for 10 minutes at RT. Unbound Crystal Violet was rinsed by washing with water and finally 33% acetic acid was added to dissolve the dye.
# (§4) The optical density of each plate was measured on a μQuant spectrophotometer and the data were analyzed with Gen5 software (μQuant Biomolecular Spectrophotometer MQX200 and Gen5™ Microplate Data Collection & Analysis software, BioTek® Instruments. Inc, April 2008). Absorbance was measured at 570 nm for all assays and a second wavelength was measured in order to subtract noise. For the Methyl-Tetrazolium assay this second wavelength was 630 nm and for the Sulforhodamine B and Crystal Violet assays it was 690 nm.
# [2] = tested on: CALU-1 (non-small cell lung carcinoma); test: Methyl-Tetrazolium viability assay, CALU-1; type: cell-based, human
# Description: as §1
# The Methyl-Tetrazolium dye assay measures the activity of enzymes in mitochondria. The dye precursor is taken up by cells, where it undergoes reduction to the purple formazan. It measures only the mitochondrial activity and, thus, it is not always a reliable indication of whether the cells themselves are alive or dead, since even a recently dead cell has […] enzyme activity in mitochondria. Intracellular glucose concentration, pH, and time before assay all affect the measurements.
# as §2, §3
# For the Methyl-Tetrazolium assay, the dye (Sigma, M2128; 5 mg/mL, diluted in phosphate-buffered saline) was added to each well and plates were incubated for 3 hours at 37° C. After the end of the incubation period, the medium was discarded and the cells were rinsed with phosphate-buffered saline. Finally, the formazan crystals were dissolved in dimethylsulphoxide (Sigma, D4540).
# as §4
compound,measurement,setting,value
N.N.[Cl][Pt][Cl] [cisplatin],CVE Average,"[1]; LNCaP Run 3, 24 h, 0.1 μg/ml CDDP",0.425
same,CVE Average,"[1]; LNCaP Run 3, 24 h, 1 μg/ml CDDP",0.152
same,CVE Average,"[1]; LNCaP Run 3, 24 h, 10 μg/ml CDDP",0.171
same,CVE Average,"[1]; LNCaP Run 3, 24 h, 100 μg/ml CDDP",0.133
same,CVE Average,"[1]; LNCaP Run 3, 48 h, 0.1 μg/ml CDDP",0.387
same,CVE Average,"[1]; LNCaP Run 3, 48 h, 1 μg/ml CDDP",0.24
same,CVE Average,"[1]; LNCaP Run 3, 48 h, 10 μg/ml CDDP",0.267
same,CVE Average,"[1]; LNCaP Run 3, 48 h, 100 μg/ml CDDP",0.3
same,CVE Average,"[1]; LNCaP Run 3, 72 h, 0.1 μg/ml CDDP",0.619
same,CVE Average,"[1]; LNCaP Run 3, 72 h, 1 μg/ml CDDP",0.312
same,CVE Average,"[1]; LNCaP Run 3, 72 h, 10 μg/ml CDDP",0.303
same,CVE Average,"[1]; LNCaP Run 3, 72 h, 100 μg/ml CDDP",0.289
same,ABSORBANCE,[1]; 48 h,0.408
same,ABSORBANCE,[1]; 72 h,0.448
same,Average CVE 24 h,"[1]; Run 1, 0.1 μg/ml CDDP",0.418
same,Average CVE 48 h,"[1]; Run 1, 0.1 μg/ml CDDP",0.541
same,Average CVE 72 h,"[1]; Run 1, 0.1 μg/ml CDDP",0.684
same,Average CVE 24 h,"[1]; Run 1, 1 μg/ml CDDP",0.327
same,Average CVE 48 h,"[1]; Run 1, 1 μg/ml CDDP",0.252
same,Average CVE 72 h,"[1]; Run 1, 1 μg/ml CDDP",0.558
same,Average CVE 24 h,"[1]; Run 1, 10 μg/ml CDDP",0.289
same,Average CVE 48 h,"[1]; Run 1, 10 μg/ml CDDP",0.467
same,Average CVE 72 h,"[1]; Run 1, 10 μg/ml CDDP",0.423
same,Average CVE 24 h,"[1]; Run 1, 100 μg/ml CDDP",0.359
same,Average CVE 48 h,"[1]; Run 1, 100 μg/ml CDDP",0.306
same,Average CVE 72 h,"[1]; Run 1, 100 μg/ml CDDP",0.398
same,Average CVE 24 h,"[1]; Run 2, 0.1 μg/ml CDDP",0.463
same,Average CVE 48 h,"[1]; Run 2, 0.1 μg/ml CDDP",0.408
same,Average CVE 72 h,"[1]; Run 2, 0.1 μg/ml CDDP",0.448
same,Average CVE 24 h,"[1]; Run 2, 1 μg/ml CDDP",0.227
same,Average CVE 48 h,"[1]; Run 2, 1 μg/ml CDDP",0.29
same,Average CVE 72 h,"[1]; Run 2, 1 μg/ml CDDP",0.522
same,Average CVE 24 h,"[1]; Run 2, 10 μg/ml CDDP",0.278
same,Average CVE 48 h,"[1]; Run 2, 10 μg/ml CDDP",0.207
same,Average CVE 72 h,"[1]; Run 2, 10 μg/ml CDDP",0.299
same,Average CVE 24 h,"[1]; Run 2, 100 μg/ml CDDP",0.276
same,Average CVE 48 h,"[1]; Run 2, 100 μg/ml CDDP",0.237
same,Average CVE 72 h,"[1]; Run 2, 100 μg/ml CDDP",0.214
same,Average MTT 24 h,"[2]; CALU-1 Run 1, 0.1 μg/ml CDDP",0.178
same,Average MTT 48 h,"[2]; CALU-1 Run 1, 0.1 μg/ml CDDP",0.272
same,Average MTT 72 h,"[2]; CALU-1 Run 1, 0.1 μg/ml CDDP",0.272
same,Average MTT 24 h,"[2]; CALU-1 Run 1, 1 μg/ml CDDP",0.024
same,Average MTT 48 h,"[2]; CALU-1 Run 1, 1 μg/ml CDDP",0.024
same,Average MTT 72 h,"[2]; CALU-1 Run 1, 1 μg/ml CDDP",0.032
same,Average MTT 24 h,"[2]; CALU-1 Run 1, 10 μg/ml CDDP",0.043
same,Average MTT 48 h,"[2]; CALU-1 Run 1, 10 μg/ml CDDP",0.031
same,Average MTT 72 h,"[2]; CALU-1 Run 1, 10 μg/ml CDDP",0.024
same,Average MTT 24 h,"[2]; CALU-1 Run 1, 100 μg/ml CDDP",0.033
same,Average MTT 48 h,"[2]; CALU-1 Run 1, 100 μg/ml CDDP",0.033
same,Average MTT 72 h,"[2]; CALU-1 Run 1, 100 μg/ml CDDP",0.019
same,Average MTT 24 h,"[2]; CALU-1 Run 2, 0.1 μg/ml CDDP",0.244
same,Average MTT 48 h,"[2]; CALU-1 Run 2, 0.1 μg/ml CDDP",0.322
same,Average MTT 72 h,"[2]; CALU-1 Run 2, 0.1 μg/ml CDDP",0.29
same,Average MTT 24 h,"[2]; CALU-1 Run 2, 1 μg/ml CDDP",0.055
same,Average MTT 48 h,"[2]; CALU-1 Run 2, 1 μg/ml CDDP",0.024
same,Average MTT 72 h,"[2]; CALU-1 Run 2, 1 μg/ml CDDP",0.021
same,Average MTT 24 h,"[2]; CALU-1 Run 2, 10 μg/ml CDDP",0.056
same,Average MTT 48 h,"[2]; CALU-1 Run 2, 10 μg/ml CDDP",0.019
same,Average MTT 72 h,"[2]; CALU-1 Run 2, 10 μg/ml CDDP",0.015
same,Average MTT 24 h,"[2]; CALU-1 Run 2, 100 μg/ml CDDP",0.035
same,Average MTT 48 h,"[2]; CALU-1 Run 2, 100 μg/ml CDDP",0.016
same,Average MTT 72 h,"[2]; CALU-1 Run 2, 100 μg/ml CDDP",0.018
same,Average MTT 24 h,"[2]; CALU-1 Run 3, 0.1 μg/ml CDDP, 24 h",0.178
same,Average MTT 48 h,"[2]; CALU-1 Run 3, 0.1 μg/ml CDDP, 48 h",0.281
same,Average MTT 72 h,"[2]; CALU-1 Run 3, 0.1 μg/ml CDDP, 72 h",0.295
same,Average MTT 24 h,"[2]; CALU-1 Run 3, 1 μg/ml CDDP, 24 h",0.029
same,Average MTT 48 h,"[2]; CALU-1 Run 3, 1 μg/ml CDDP, 48 h",0.033
same,Average MTT 72 h,"[2]; CALU-1 Run 3, 1 μg/ml CDDP, 72 h",0.031
same,Average MTT 24 h,"[2]; CALU-1 Run 3, 10 μg/ml CDDP, 24 h",0.057
same,Average MTT 48 h,"[2]; CALU-1 Run 3, 10 μg/ml CDDP, 48 h",0.025
same,Average MTT 72 h,"[2]; CALU-1 Run 3, 10 μg/ml CDDP, 72 h",0.022
same,Average MTT 24 h,"[2]; CALU-1 Run 3, 100 μg/ml CDDP, 24 h",0.028
same,Average MTT 48 h,"[2]; CALU-1 Run 3, 100 μg/ml CDDP, 48 h",0.026
same,Average MTT 72 h,"[2]; CALU-1 Run 3, 100 μg/ml CDDP, 72 h",0.002
